Data from patent publication US20230382869A1, “Phenyl-3,4-dihydroisoquinolin-2(1h)-yl-ethan-1-one derivatives as dopamine d1receptor positive allosteric modulators” (Eli Lilly and Company, priority 2020, published 2023).

Target: human D1 receptor (Homo sapiens (Human), UniProt P21728)
Test: Human D1 Receptor PAM Assay (cAMP HTRF, potentiator mode)
Format: cell-based
Details: for EC50: HEK293 cells expressing human D1, with EC20 dopamine (12 nM final), cAMP, read-out: Abs EC50; for % Top (% Potentiation): fitted top, 0% = EC20 dopamine alone, 100% = 5 μM dopamine
Source text: The PAM activity of the compounds of the present invention may be measured essentially as described in Svensson et al., An Allosteric Potentiator of the Dopamine D1 Receptor Increases Locomotor Activity in Human D1 Knock-in Mices without Casusing Stereotypy or Tachyphylaxis. J. Pharmacol. Exp. Ther. (2017) 360:117-128.
More specifically, HEK293 cells that stably express the human D1 receptor (Accession number NM_000794) are generated by gene transduction using the pBABE-bleo retroviral vector and selected with Zeocin™ (InvivoGen). At approximately 80% confluency, the cells are harvested using TrypLE™ Express (Gibco), suspended in FBS plus 8% DMSO, and stored in liquid nitrogen. On the day of the assay, cells are thawed and resuspended in STIM buffer (Hanks Balanced Salt Solution supplemented with 0.1% BSA, 20 mM HEPES, 500 μM IBMX, and 100 μM ascorbic acid).
Test compound is serially diluted (1:2) with DMSO into assay plates (ProxiPlate-384 Plus, PerkinElmer) using acoustic dispensing (Labcyte) to provide 20 concentrations for full response curves. Test compound (80 nL) is added to 5 μL STIM buffer containing 2000 cells, and 5 μL of a 2×concentration dopamine solution in STIM buffer that will generate an EC20 level response (24 nM in stock solution, or 12 nM final) and a final DMSO concentration in the well of 0.8%. Plates are incubated at room temperature for a total reaction time of 60 min.
cAMP production is quantified using HTRF® detection (Cisbio) according to the manufacturer's instructions. Generally, lysis buffer containing anti-cAMP cryptate (5 μL) and D2-conjugate (from HTRF® kit)(5 μL) is added to the wells, plates are incubated for an additional 60-90 min, and the time-resolved fluorescence is detected using an EnVision™ plate reader (PerkinElmer). Fluorescence data is converted to cAMP concentrations using a cAMP standard curve and analyzing using a 4-parameter non-linear logistic equation (Genedata Screener, version 13.0.5-standard). For potentiator mode concentration-response curves, results are expressed as percent of the window between a response at EC20 concentration of dopamine alone (normalized to 0%) and the maximum response to dopamine (defined by response to 5 μM dopamine, final concentration, normalized as 100%). Absolute EC50 values are calculated based on the maximum and minimum responses of the control agonist (dopamine). The % Potentiation (% Top) is determined from the fitted top of the concentration response curve.

Chain of human D1 receptor (P21728 whole entry): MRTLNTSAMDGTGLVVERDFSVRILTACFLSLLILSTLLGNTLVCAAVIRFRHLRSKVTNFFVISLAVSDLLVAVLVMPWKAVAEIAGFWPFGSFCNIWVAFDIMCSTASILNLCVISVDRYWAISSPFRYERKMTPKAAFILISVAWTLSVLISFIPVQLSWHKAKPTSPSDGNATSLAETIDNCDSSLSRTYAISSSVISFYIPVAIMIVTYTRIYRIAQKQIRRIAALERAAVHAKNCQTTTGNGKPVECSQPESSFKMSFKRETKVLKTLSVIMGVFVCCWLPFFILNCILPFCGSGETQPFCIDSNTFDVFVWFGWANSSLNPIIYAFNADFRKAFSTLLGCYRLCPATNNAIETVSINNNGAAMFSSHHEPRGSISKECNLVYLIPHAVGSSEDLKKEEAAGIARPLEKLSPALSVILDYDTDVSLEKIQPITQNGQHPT

C[C@@H]1c2ccc(F)c([C@@H]3C[C@H]3C(C)(C)O)c2C[C@H](CO)N1C(=O)Cc1c(F)cccc1Cl (relative stereo) [Example 9, 2-(2-chloro-6-fluoro-phenyl)-1-[(1R,3R)-6-fluoro-3-(hydroxymethyl)-5-[trans-2-(1-hydroxy-1-methyl-ethyl)cyclopropyl]-1-methyl-3,4-dihydro-1H-isoquinolin-2-yl]ethenone]
EC50: 0.0132 µM
% Top (% Potentiation): 82.0%

C[C@H]1c2cccc([C@@H]3C[C@@H]3C(C)(C)O)c2C[C@H](CO)N1C(=O)Cc1c(Cl)cccc1Cl (relative stereo) [Example 3, 2-(2,6-Dichlorophenyl)-1-[(1S,3R)-3-(hydroxymethyl)-5-[cis-2-(1-hydroxy-1-methyl-ethyl)cyclopropyl]-1-methyl-3,4-dihydro-1H-isoquinolin-2-yl]ethenone]
EC50: 0.0112 µM
% Top (% Potentiation): 91.9%

C[C@H]1c2cccc([C@@H]3C[C@H]3C(C)(C)O)c2C[C@H](CO)N1C(=O)Cc1c(Cl)cccc1Cl (relative stereo) [Example 2, 2-(2,6-Dichlorophenyl)-1-[(1S,3R)-3-(hydroxymethyl)-5-[trans-2-(1-hydroxy-1-methyl-ethyl)cyclopropyl]-1-methyl-3,4-dihydro-1H-isoquinolin-2-yl]ethenone]
EC50: 0.00828 µM
% Top (% Potentiation): 96.4%

2-(2,6-Dichlorophenyl)-1-[(1S,3R)-5-[4,4-difluoro-3-hydroxy-3-methyl-butyl]-3-(hydroxymethyl)-1-methyl-3,4-dihydro-1H-isoquinolin-2-yl]ethenone [Example 5]
EC50: 0.00796 µM
% Top (% Potentiation): 101%

2-(2,6-Dichlorophenyl)-1-[(1S,3R)-5-[4,4-difluoro-3-hydroxy-3-methyl-butyl]-3-(hydroxymethyl)-1-methyl-3,4-dihydro-1H-isoquinolin-2-yl]ethenone [Example 6]
EC50: 0.0127 µM
% Top (% Potentiation): 97.0%

C[C@@H]1c2ccc(F)c([C@@H]3C[C@H]3C(C)(C)O)c2C[C@H](CO)N1C(=O)Cc1c(F)cccc1Cl (relative stereo) [Example 8, 2-(2-chloro-6-fluoro-phenyl)-1-[(1R,3R)-6-fluoro-3-(hydroxymethyl)-5-[trans-2-(1-hydroxy-1-methyl-ethyl)cyclopropyl]-1-methyl-3,4-dihydro-1H-isoquinolin-2-yl]ethenone]
EC50: 0.0336 µM
% Top (% Potentiation): 78.9%

C[C@H]1c2ccc(F)c([C@@H]3C[C@H]3C(C)(C)O)c2C[C@H](CO)N1C(=O)Cc1c(Cl)cccc1Cl (relative stereo) [Example 11, 2-(2,6-dichlorophenyl)-1-[(1S,3R)-6-fluoro-3-(hydroxymethyl)-5-[trans-(1-hydroxy-1-methyl-ethyl)cyclopropyl]-1-methyl-3,4-dihydro-1H-isoquinolin-2-yl]ethenone]
EC50: 0.00519 µM
% Top (% Potentiation): 92.7%

C[C@H]1c2cccc([C@@H]3C[C@@H]3C(C)(C)O)c2C[C@H](CO)N1C(=O)Cc1c(Cl)cccc1Cl (relative stereo) [Example 4, 2-(2,6-Dichlorophenyl)-1-[(1S,3R)-3-(hydroxymethyl)-5-[cis-2-(1-hydroxy-1-methyl-ethyl)cyclopropyl]-1-methyl-3,4-dihydro-1H-isoquinolin-2-yl]ethenone]
EC50: 0.0867 µM
% Top (% Potentiation): 93.2%

C[C@H]1c2ccc(F)c([C@@H]3C[C@H]3C(C)(C)O)c2C[C@H](CO)N1C(=O)Cc1c(Cl)cccc1Cl (relative stereo) [Example 10, 2-(2,6-dichlorophenyl)-1-[(1S,3R)-6-fluoro-3-(hydroxymethyl)-5-[trans-(1-hydroxy-1-methyl-ethyl)cyclopropyl]-1-methyl-3,4-dihydro-1H-isoquinolin-2-yl]ethenone]
EC50: 0.0123 µM
% Top (% Potentiation): 86.9%

C[C@H]1c2cccc([C@@H]3C[C@H]3C(C)(C)O)c2C[C@H](CO)N1C(=O)Cc1c(Cl)cccc1Cl (relative stereo) [Example 1, 2-(2,6-Dichlorophenyl)-1-[(1S,3R)-3-(hydroxymethyl)-5-[trans-2-(1-hydroxy-1-methyl-ethyl)cyclopropyl]-1-methyl-3,4-dihydro-1H-isoquinolin-2-yl]ethenone]
EC50: 0.0121 µM
% Top (% Potentiation): 94.2%
